Measured values as given in patent publication US6465220B1, “Glycosylation using GalNac-T4 transferase” (GlycoZym ApS, priority 1998, dated 2002).
Read-outs that look alike come from different tables or passages of the source. Ends that are not written are not given here.

Key:
GalNAc-T2 [1] = molecular target: T1, GalNAc-T2 (Homo sapiens, UniProt Q10471); conditions: donor substrate; data from Wandall et al.; cited from earlier work
T1 construct: Control constructs pAcGP67-GalNAc-T1-sol, pAcGP67-GalNAc-T2-sol, pAcGP67-GalNAc-T3-sol, and pAcGP67-O^2-sol were prepared as previously described; made in house; host or cells: insect cells (baculovirus, pAcGP67)

GalNAc-T4 = molecular target: T2, GalNAc-T4 (Homo sapiens, UniProt Q8N4A0); experiment: GalNAc-transferase assay with purified recombinant GalNAc-T4; format: biochemical
T2 construct: made in house; host or cells: High Five insect cells (baculovirus, pAcGP67 vector)
Procedure: (§1) In the examples, GalNAc-transferase assays were performed in 50 μl total reaction mixtures containing 25 mM cacodylate (pH 7.5), 10 mM MnCl2, 0.1-0.25% Triton X-100, 150-200 μM UDP-[^14C]-GalNAc (4,000 cpm/nmole) (Amersham) and 0.06-1 mM acceptor peptides. Peptides were either synthesized or obtained from Carlbiotech (Copenhagen), or Neosystems (Strasbourg), and quality was ascertained by amino acid analysis and mass spectrometry. Peptides Muc-1a, Muc-1b, and TAP24, were derived from the tandem repeat of human MUC1, Gendler et al., J. Biol. Chem. 265:15286 (1990), and Muc2, Muc5AC, and Muc7 from the tandem repeats of MUC2, MUC5AC, and MUC7, respectively. Gum et al., J. Biol. Chem. 264:6480 (1989); Porchet et al., Biochem. Soc. Trans. 23:800 (1995); Bobek et al., J. Biol. Chem. 268:20563 (1993). GalNAc4TAP24 was produced by in vitro glycosylation using GalNAc-T2 as described in Wandall et al., J. Biol. Chem. 272:23503 (1997). Products were quantified by scintillation counting after chromatography on Dowex-1, octadecyl silica cartridges (Bakerbond), or HPLC (PC3.2/3 or mRPC C2/C18 SC2.1/10 Pharmacia, Smart System). Products produced by in vitro glycosylation were in most cases also confirmed by mass spectrometry.
In this example, GalNAc-T4 was expressed in Sf9 insect cells. Expression constructs designed to contain amino acid residues 32-578 of the coding sequence of the putative GalNAc-T4 gene shown in SEQ ID NO:1 prepared by genomic PCR of two clones containing GalNAc-T4 (described in Bennett et al. (1998), supra) were cloned into a BamHI site of the expression vector pAcGP67 (Pharmingen), and the expression construct was sequenced. The constructs pAcGP67-GalNAc-T4506Vsol and pAcGP67-GalNAc-T4506 I sol, were designed to yield a putative soluble form of the GalNAc-T4 protein with an N-terminal end positioned immediately C-terminal to a potential transmembrane domain and including the entire sequence expected to contain the catalytic domain. […] Res. Comm. 211:347 (1995).
The activities presented in Table I were obtained with purified GalNAc-T4 and -T2, and are expressed as mU/mg (the concentration of enzyme protein estimated by SDS-PAGE using BSA as standard).

GalNAc-T3 [2] = molecular target: T3, GalNAc-T3 (Homo sapiens, UniProt Q14435); conditions: donor substrate; data from Wandall et al.; cited from earlier work
T3 construct: Control constructs pAcGP67-GalNAc-T1-sol, pAcGP67-GalNAc-T2-sol, pAcGP67-GalNAc-T3-sol, and pAcGP67-O^2-sol were prepared as previously described; made in house; host or cells: insect cells (baculovirus, pAcGP67)
T3 sequence (Q14435 38-633 limits assumed): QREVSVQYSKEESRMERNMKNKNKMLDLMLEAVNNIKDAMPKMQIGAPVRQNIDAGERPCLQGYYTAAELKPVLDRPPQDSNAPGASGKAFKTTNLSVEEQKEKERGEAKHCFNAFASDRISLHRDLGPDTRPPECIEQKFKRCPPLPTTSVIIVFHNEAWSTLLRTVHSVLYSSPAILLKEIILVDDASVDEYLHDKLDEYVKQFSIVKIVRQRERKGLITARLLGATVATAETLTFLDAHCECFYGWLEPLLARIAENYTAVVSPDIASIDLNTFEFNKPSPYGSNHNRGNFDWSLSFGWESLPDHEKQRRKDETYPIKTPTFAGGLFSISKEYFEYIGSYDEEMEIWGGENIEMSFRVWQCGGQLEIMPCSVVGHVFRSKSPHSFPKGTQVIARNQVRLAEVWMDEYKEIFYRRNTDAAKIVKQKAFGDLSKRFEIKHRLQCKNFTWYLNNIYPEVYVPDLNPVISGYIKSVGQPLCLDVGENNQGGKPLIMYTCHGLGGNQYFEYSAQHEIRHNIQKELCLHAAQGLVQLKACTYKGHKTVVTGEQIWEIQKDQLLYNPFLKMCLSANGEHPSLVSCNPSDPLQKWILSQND

GalNAc-T1 [3] = molecular target: T4, GalNAc-T1 (Homo sapiens, UniProt Q10472); conditions: donor substrate; data from Wandall et al.; cited from earlier work
T4 construct: Control constructs pAcGP67-GalNAc-T1-sol, pAcGP67-GalNAc-T2-sol, pAcGP67-GalNAc-T3-sol, and pAcGP67-O^2-sol were prepared as previously described; made in house; host or cells: insect cells (baculovirus, pAcGP67)
T4 sequence (Q10472 41-559 limits assumed): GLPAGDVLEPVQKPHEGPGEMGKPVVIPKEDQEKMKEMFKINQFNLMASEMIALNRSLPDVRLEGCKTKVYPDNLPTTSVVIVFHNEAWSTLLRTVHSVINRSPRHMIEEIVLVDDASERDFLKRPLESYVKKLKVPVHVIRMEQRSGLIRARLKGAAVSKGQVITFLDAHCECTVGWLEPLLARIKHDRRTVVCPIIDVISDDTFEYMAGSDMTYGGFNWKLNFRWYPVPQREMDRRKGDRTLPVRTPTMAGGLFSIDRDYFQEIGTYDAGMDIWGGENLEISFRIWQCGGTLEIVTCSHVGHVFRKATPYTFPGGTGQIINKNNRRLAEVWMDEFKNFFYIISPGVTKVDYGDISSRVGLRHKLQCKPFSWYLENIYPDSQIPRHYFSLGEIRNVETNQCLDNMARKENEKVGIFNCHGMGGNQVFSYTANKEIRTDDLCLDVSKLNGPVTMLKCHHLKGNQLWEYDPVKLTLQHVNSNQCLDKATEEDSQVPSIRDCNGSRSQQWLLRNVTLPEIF

GalNAc-T3 [4] = molecular target: T3, GalNAc-T3; experiment: GalNAc-transferase assay with purified recombinant GalNAc-T3; format: biochemical
Procedure: as §1, with “The following examples are provided to illustrate certain preferred embodiments of the invention, and should be considered as illustration and not as limitation. In” for “In”
(§2) In this example, GalNAc-T4 was expressed in Sf9 insect cells. Expression constructs designed to contain amino acid residues 32-578 of the coding sequence of the putative GalNAc-T4 gene shown in SEQ ID NO:1 prepared by genomic PCR of two clones containing GalNAc-T4 (described in Bennett et al. (1998), supra) were cloned into a BamHI site of the expression vector pAcGP67 (Pharmingen), and the expression construct was sequenced. The constructs pAcGP67-GalNAc-T4506Vsol and pAcGP67-GalNAc-T4506 I sol, were designed to yield a putative soluble form of the GalNAc-T4 protein with an N-terminal end positioned immediately C-terminal to a potential transmembrane domain and including the entire sequence expected to contain the catalytic domain. Control constructs pAcGP67-GalNAc-T1-sol, pAcGP67-GalNAc-T2-sol, pAcGP67-GalNAc-T3-sol, and pAcGP67-O^2-sol were prepared as previously described in White et al., J. Biol. Chem 270:24156 (1995); Bennett et al., J. Biol. Chem. 271:17006 (1996); and Bennett et al., Biochem. Biophys. Res. Comm. 211:347 (1995).

GalNAc-T2 [5] = molecular target: T1, GalNAc-T2; experiment: GalNAc-transferase assay with purified recombinant GalNAc-T2; format: biochemical
Procedure: as §1, with “The following examples are provided to illustrate certain preferred embodiments of the invention, and should be considered as illustration and not as limitation. In” for “In”
as §2
Activities measured with the mucin derived substrates, Muc7, EA2, and Muc2 (see Table I for structures and SEQ ID NOs:19, 25 and 18, respectively), were only 2-7 fold over background values. Very low activities with a few other substrates were also observed, but for many of the “mucin-like” substrates a relative high background with Sf9 cells infected with irrelevant constructs made assessment difficult. GalNAc-T4 was expressed in High Five cells and purified to near homogeneity, however, very low endogenous activity was detected with some substrates in the same fractions when medium from cells infected with irrelevant expression constructs were used in the same purification strategy. The activities presented in Table I were obtained with purified GalNAc-T4 and -T2, and are expressed as mU/mg (the concentration of enzyme protein estimated by SDS-PAGE using BSA as standard). The highest activities with GalNAc-T4 were found from assays of Sf9 medium with the mucin peptides Muc7, EA2, and Muc2, however, the efficiencies with these substrates were considerably lower than GalNAc-T2.

GalNAc-T1 [6] = molecular target: T4, GalNAc-T1; experiment: GalNAc-transferase assay with purified recombinant GalNAc-T1; format: biochemical; conditions: acceptor substrate
Procedure: as §1, with “The following examples are provided to illustrate certain preferred embodiments of the invention, and should be considered as illustration and not as limitation. In” for “In”
In this example, GalNAc-T4 was expressed in Sf9 insect cells. Expression constructs designed to contain amino acid residues 32-578 of the coding sequence of the putative GalNAc-T4 gene shown in SEQ ID NO:1 prepared by genomic PCR of two clones containing GalNAc-T4 (described in Bennett et al. (1998), supra) were cloned into a BamHI site of the expression vector pAcGP67 (Pharmingen), and the expression construct was sequenced. […]

**Q.** Which results are given for CC(=O)N[C@H]1[C@@H](OP(=O)(O)OP(=O)(O)OC[C@H]2O[C@@H](n3ccc(=O)[nH]c3=O)[C@H](O)[C@@H]2O)O[C@H](CO)[C@H](O)[C@@H]1O [UDP-GalNAc, UDP-N-acetylgalactosamine]?
**A.** Km (GalNAc-T2 [1]): 10 µM; Km (GalNAc-T4; donor substrate, saturating concentration of Muc7 as substrate, read-out: Km GalNAc-T4): 160 µM; Km (GalNAc-T4; using the Muc7 acceptor substrate, read-out: Km of purified GalNAc-T4 for UDP-GalNAc): 160 µM; Km (GalNAc-T3 [2]): 29 µM; Km (GalNAc-T1 [3]): 62 µM

**Q.** With CC(=O)N[C@H]1[C@@H](OP(=O)(O)OP(=O)(O)OC[C@H]2O[C@@H](n3ccc(=O)[nH]c3=O)[C@H](O)[C@@H]2O)O[C@H](CO)[C@@H](O)[C@@H]1O [UDP-GlcNAc] as the molecule, how does the “incorporation with alternative donor substrate” value (GalNAc-T4; Muc7 acceptor peptide) read?
**A.** No incorporation

**Q.** What does the source list for “AHGVTSAPDTR [Muc1a′, peptide derived from the tandem repeat of human MUC1]”?
**A.** GalNAc-T4 activity with acceptor peptide (GalNAc-T4; 0.25 mM peptide in 50-μl assay): 2 ± 0.4 milliunits/mg; GalNAc-T4 activity with acceptor peptide (GalNAc-T4; 1 mM peptide in 50-μl assay): 6.7 ± 1 milliunits/mg; GalNAc-T4 activity with substrate (in words) (GalNAc-T4; purified GalNAc-T4): somewhat poor activities; specific activity of GalNAc-T3 (GalNAc-T3 [4]; with Muc1a): 0.5 U/mg; GalNAc-T2 activity with acceptor peptide (GalNAc-T2 [5]; 0.25 mM peptide in 50-μl assay): 28 ± 5 milliunits/mg; GalNAc-T2 activity with acceptor peptide (GalNAc-T2 [5]; 1 mM peptide in 50-μl assay): 83 ± 2 milliunits/mg

**Q.** For Ac-QATEYEYLDYDFLPETEPPEM [PSGL-1b], which Km (GalNAc-T3 [4]; acceptor substrate) is on record?
**A.** > 2000 µM

**Q.** What about the Km (GalNAc-T2 [5]; acceptor substrate) of the same molecule?
**A.** > 2000 µM

**Q.** What about the Km (GalNAc-T1 [6]) of the same molecule?
**A.** > 2000 µM
